Experimental data as given in patent US20220033397A1, “PHARMACEUTICAL COMPOUNDS AND THEIR USE AS INHIBITORS OF UBIQUITIN SPECIFIC PROTEASE 19 (USP19)” (ALMAC DISCOVERY LIMITED, priority 2018, published 2022).

The molecules below were run against T1, Full-length USP19 (Homo sapiens, UniProt O94966) (assay: USP19 fluorescence polarisation (FP) homogeneous assay with Ubiquitin-Lys-TAMRA substrate). Details: 2.5 nM USP19, 30 min pre-incubation, average of at least two duplicate experiments.
T1 construct: Full-length USP19 was purchased from Boston Biochem (E-576); purchased Boston Biochem E-576
T1 sequence (O94966 1-1318): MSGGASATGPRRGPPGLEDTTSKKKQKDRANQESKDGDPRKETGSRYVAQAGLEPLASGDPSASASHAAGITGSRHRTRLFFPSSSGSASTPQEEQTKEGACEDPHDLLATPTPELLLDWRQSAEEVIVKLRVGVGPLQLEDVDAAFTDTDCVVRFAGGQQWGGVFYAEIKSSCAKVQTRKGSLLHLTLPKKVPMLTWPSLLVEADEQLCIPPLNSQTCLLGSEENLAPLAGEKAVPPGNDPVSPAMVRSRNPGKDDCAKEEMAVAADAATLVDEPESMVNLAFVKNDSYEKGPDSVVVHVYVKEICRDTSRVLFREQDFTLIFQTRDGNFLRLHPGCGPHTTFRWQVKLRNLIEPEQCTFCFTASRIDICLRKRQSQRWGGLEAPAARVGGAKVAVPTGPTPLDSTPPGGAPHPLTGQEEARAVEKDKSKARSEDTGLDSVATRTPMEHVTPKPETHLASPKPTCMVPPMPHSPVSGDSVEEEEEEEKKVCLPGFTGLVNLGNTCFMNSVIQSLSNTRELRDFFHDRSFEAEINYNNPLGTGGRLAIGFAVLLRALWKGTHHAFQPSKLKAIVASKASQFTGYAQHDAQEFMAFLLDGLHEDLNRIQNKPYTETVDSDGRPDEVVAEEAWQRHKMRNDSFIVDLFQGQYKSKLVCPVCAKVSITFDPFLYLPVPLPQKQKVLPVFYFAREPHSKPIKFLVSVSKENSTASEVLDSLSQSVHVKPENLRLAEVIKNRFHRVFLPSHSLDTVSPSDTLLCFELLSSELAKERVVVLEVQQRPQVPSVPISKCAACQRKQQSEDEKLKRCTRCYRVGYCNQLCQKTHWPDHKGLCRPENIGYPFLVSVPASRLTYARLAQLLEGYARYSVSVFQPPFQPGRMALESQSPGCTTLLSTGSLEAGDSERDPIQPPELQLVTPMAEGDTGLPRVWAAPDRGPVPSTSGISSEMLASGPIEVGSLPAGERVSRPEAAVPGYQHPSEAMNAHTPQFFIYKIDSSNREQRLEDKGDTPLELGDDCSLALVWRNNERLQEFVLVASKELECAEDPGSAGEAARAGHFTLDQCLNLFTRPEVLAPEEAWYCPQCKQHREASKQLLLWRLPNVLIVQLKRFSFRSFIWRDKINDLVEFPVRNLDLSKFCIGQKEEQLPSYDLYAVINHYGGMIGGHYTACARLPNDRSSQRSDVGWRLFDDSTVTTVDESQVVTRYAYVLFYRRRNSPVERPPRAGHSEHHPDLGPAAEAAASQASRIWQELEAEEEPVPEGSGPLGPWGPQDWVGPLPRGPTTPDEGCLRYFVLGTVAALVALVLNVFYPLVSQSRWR
Assay type: biochemical
Summary of the method: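 Full-length USP19 preincubated 30 min at RT with inhibitor (200 μM to 2 μM series, 8–18 points) before adding 500 nM Ubiquitin-Lys-TAMRA substrate.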

SMILES	IC50
C[C@H](CC(F)(F)F)C(=O)N1CCC(O)(CN2CCN(C(=O)c3ccccc3)CC2=O)C2(CCCC2)C1 (stereo partly drawn) [Example 108, 4-Benzoyl-1-((10-hydroxy-7-((R)-4,4,4-trifluoro-2-methylbutanoyl)-7-azaspiro[4.5]decan-10-yl)methyl)Piperazin-2-one]	5 to 50 µM
C[C@H](CC1CCCCC1)C(=O)N1CCC(O)(Cn2ccc3ncncc3c2=O)C2(CCCC2)C1 (stereo partly drawn) [Example 158, 6-((7-((R)-3-Cyclohexyl-2-methylpropanoyl)-10-hydroxy-7-azaspiro[4.5]decan-10-yl)methyl)pyrido[4,3-d]pyrimidin-5(6H)-one]	0.5 to 5 µM
C[C@H](CC1CCCCC1)C(=O)N1CCC(O)(Cn2cc([S+](C)[O-])c(-c3ccccc3)cc2=O)C2(CCCC2)C1 (stereo partly drawn) [Example 79, 1-((7-((R)-3-Cyclohexyl-2-methylpropanoyl)-10-hydroxy-7-azaspiro[4.5]decan-10-yl)methyl)-5-(methylsulfinyl)-4-phenylpyridin-2(1H)-one]	< 0.5 µM
O=C(N1CCC(O)(Cn2cnc3c(cnn3-c3ccccc3)c2=O)C2(CCCC2)C1)N1CCNC[C@H]1c1ccccc1 (stereo partly drawn) [Example 178, 5-((10-Hydroxy-7-((R)-2-phenylpiperazine-1-carbonyl)-7-azaspiro[4.5]decan-10-yl)methyl)-1-phenyl-1,5-dihydro-4H-pyrazolo[3,4-d]pyrimidin-4-one]	< 0.5 µM
C[C@H](CC1CCCCC1)C(=O)N1CCC(O)(Cn2cc(C(=O)O)ncc2=O)C2(CCCC2)C1 (stereo partly drawn) [Example 9, 4-((7-((R)-3-Cyclohexyl-2-methylpropanoyl)-10-hydroxy-7-azaspiro[4.5]decan-10-yl)methyl)-5-oxo-4,5-dihydropyrazine-2-carboxylic acid]	0.5 to 5 µM
C[C@H](CC1CCCCC1)C(=O)N1CCC(O)(Cn2cc(N=S(C)(C)=O)c(Cl)cc2=O)C2(CCCC2)C1 (stereo partly drawn) [Example 69, 4-Chloro-1-((7-((R)-3-cyclohexyl-2-methylpropanoyl)-10-hydroxy-7-azaspiro[4.5]decan-10-yl)methyl)-5-((dimethyl(oxo)-λ^6-sulfaneylidene)amino)pyridin-2(1H)-one]	0.5 to 5 µM
O=C(NCc1ccccc1)N1CCC(O)(Cn2ccc(-c3ccccc3)cc2=O)C2(CCCC2)C1 (centres unmarked) [Example 192, N-Benzyl-10-hydroxy-10-((2-oxo-4-phenylpyridin-1(2H)-yl)methyl)-7-azaspiro[4.5]decane-7-carboxamide]	< 0.5 µM
C[C@H](CC1CCCCC1)C(=O)N1CCC(O)(Cn2cc(-c3cccnc3)ncc2=O)C(C)(C)C1 (stereo partly drawn) [Example 12, 1-((1-((R)-3-Cyclohexyl-2-methylpropanoyl)-4-hydroxy-3,3-dimethylpiperidin-4-yl)methyl)-5-(pyridin-3-yl)pyrazin-2(1H)-one]	0.5 to 5 µM
CC(CC1CCCCC1)C(=O)N1CCC(O)(CN2CC(Cc3ccccc3)CC2=O)CC1 (centres unmarked) [Example 43, 4-Benzyl-1-((1-(3-cyclohexyl-2-methylpropanoyl)-4-hydroxypiperidin-4-yl)methyl)pyrrolidin-2-one]	5 to 50 µM
C[C@H](CC(F)(F)F)C(=O)N1CCC(O)(Cn2cc(C(=O)N(C)C)c3ccccc3c2=O)C2(CCCC2)C1 (stereo partly drawn) [Example 130, 2-((10-Hydroxy-7-((R)-4,4,4-trifluoro-2-methylbutanoyl)-7-azaspiro[4.5]decan-10-yl)methyl)-N,N-dimethyl-1-oxo-1,2-dihydroisoquinoline-4-carboxamide]	50 to 250 µM
Cn1nc(C(F)(F)F)cc1-c1ccn(C[C@]2(O)CCN(C(=O)N3CCNC[C@H]3c3ccccc3)CC23CCCC3)c(=O)c1 [Example 362, 1-(((S)-10-Hydroxy-7-((R)-2-phenylpiperazine-1-carbonyl)-7-azaspiro [4.5]decan-10-yl)methyl)-4-(1-methyl-3-(trifluoromethyl)-1H-pyrazol-5-yl)pyri-din-2(1H)-one]	< 0.5 µM
O=C(N1CC[C@@](O)(Cn2ccc(-c3ccccc3)cc2=O)C2(CCCC2)C1)N1CCNC[C@H]1c1ccccc1 [Example 287, 1-(((S)-10-Hydroxy-7-((R)-2-phenylpiperazine-1-carbonyl)-7-azaspiro[4.5]decan-10-yl)methyl)-4-phenylpyridin-2(1H)-one]	< 0.5 µM
C[C@H](CC(F)(F)F)C(=O)N1CCC(O)(Cn2ccc3nc(N4CCN(C)CC4)ncc3c2=O)C2(CCCC2)C1 (stereo partly drawn) [Example 61, 6-((10-Hydroxy-7-((R)-4,4,4-trifluoro-2-methylbutanoyl)-7-azaspiro[4.5]decan-10-yl)methyl)-2-(4-methylpiperazin-1-yl)pyrido[4,3-d]pyrimidin-5(6H)-one]	0.5 to 5 µM
O=C(N1CC[C@@](O)(Cn2ccc(Cl)cc2=O)C2(CCCC2)C1)N1CCNC[C@H]1c1ccccc1 [Example 326, 4-Chloro-1-(((S)-10-hydroxy-7-((R)-2-phenylpiperazine-1-carbonyl)-7-azaspiro[4.5]decan-10-yl)methyl)pyridin-2(1H)-one]	< 0.5 µM
C[C@H](CC1CCCCC1)C(=O)N1CCC(O)(Cn2cnc3cc(F)c(Cl)cc3c2=O)C2(CCCC2)C1 (stereo partly drawn) [Example 155, 6-Chloro-3-((7-((R)-3-cyclohexyl-2-methylpropanoyl)-10-hydroxy-7-azaspiro[4.5]decan-10-yl)methyl)-7-fluoroquinazolin-4(3H)-one]	< 0.5 µM
O=C(N1CCC(O)(Cn2cnc(-c3ccccc3)cc2=O)C2(CCCC2)C1)N1CCC12CCOC2 (centres unmarked) [Example 236, 3-((10-Hydroxy-7-(6-oxa-1-azaspiro[3.4]octane-1-carbonyl)-7-azaspiro[4.5]decan-10-yl)methyl)-6-phenylpyrimidin-4(3H)-one]	5 to 50 µM
O=C(N1CCC(O)(Cn2cnc(-c3ccccc3)cc2=O)C2(CCCC2)C1)N1CCOCC1C1CC1 (centres unmarked) [Example 248, 3-((7-(3-Cyclopropylmorpholine-4-carbonyl)-10-hydroxy-7-azaspiro[4.5]decan-10-yl)methyl)-6-phenylpyrimidin-4(3H)-one]	5 to 50 µM
O=C(N1CC[C@@](O)(Cn2cnc(-c3ccccc3)cc2=O)C2(CCCC2)C1)N1CCOC[C@H]1c1ccc(F)cc1 [Example 228, 3-(((S)-7-((R)-3-(4-Fluorophenyl)morpholine-4-carbonyl)-10-hydroxy-7-azaspiro[4.5]decan-10-yl)methyl)-6-phenylpyrimidin-4(3H)-one]	< 0.5 µM
C[C@H](CC1CCCCC1)C(=O)N1CCC(O)(CN2CCN(C(=O)OC(C)(C)C)CC2=O)C2(CCCC2)C1 (stereo partly drawn) [Example 38, tert-Butyl 4-((7-((R)-3-cyclohexyl-2-methylpropanoyl)-10-hydroxy-7-azaspiro[4.5]decan-10-yl)methyl)-3-oxopiperazine-1-carboxylate]	< 0.5 µM
Cn1nccc1-c1cc(=O)n(C[C@]2(O)CCN(C(=O)N3CCNC[C@H]3c3ccccc3)CC23CCCC3)cn1 [Example 289, 3-(((S)-10-Hydroxy-7-((R)-2-phenylpiperazine-1-carbonyl)-7-azaspiro[4.5]decan-10-yl)methyl)-6-(1-methyl-1H-pyrazol-5-yl)pyrimidin-4(3H)-one]	< 0.5 µM
CN(C)C(=O)[C@@H]1CCCN1C(=O)N1CCC(O)(Cn2cnc(-c3ccccc3)cc2=O)C2(CCCC2)C1 (stereo partly drawn) [Example 266, (2S)-1-(10-Hydroxy-10-((6-oxo-4-phenylpyrimidin-1(6H)-yl)methyl)-7-azaspiro[4.5]decane-7-carbonyl)-N,N-dimethylpyrrolidine-2-carboxamide]	50 to 250 µM
C[C@H](CC(F)(F)F)C(=O)N1CCC(O)(Cn2cnc3nc(N4CCN(C)CC4)ncc3c2=O)C2(CCCC2)C1 (stereo partly drawn) [Example 163, 3-((10-Hydroxy-7-((R)-4,44-trifluoro-2-methylbutanoyl)-7-azaspiro[4.5]decan-10-yl)methyl)-7-(4-methylpiperazin-1-yl)pyrimido[4,5-d]pyrimidin-4(3H)-one]	0.5 to 5 µM
CC(Cc1ccccc1)C(=O)N1CCC(O)(CN2CC(Cc3ccccc3)CC2=O)C(C)(C)C1 (centres unmarked) [Example 44, 4-Benzyl-1-((4-hydroxy-3,3-dimethyl-1-(2-methyl-3-phenylpropanoyl)piperidin-4-yl)methyl)pyrrolidin-2-one]	50 to 250 µM
